Experimental data reported in patent US11679114B2, “Progestogen-only oral contraception” (Navad Life Sciences Pte, priority 2021, dated 2023).
Read-outs that look alike come from different tables or passages of the source.

Tests used:
[1] = Multiple-dose pharmacokinetics, plasma LNG concentrations on treatment day 55 (±1); assay type: in vivo, human; conditions: for AUC(0-t) / Cmax: female, human, plasma, po
Protocol: Serum SHBG concentrations were determined after ovulation in the pre-treatment cycle, on treatment day 55 (±1) and at the end-of-study examination. Multiple-dose PK parameters were investigated in approximately 15 subjects per dose group, 5 of them having a BMI≥30 kg/m^2. Blood samples for LNG determination were taken on treatment day 55 (±1) pre-dose and 0.5, 1, 2, 3, 4, 6 and 24 hours after dosing.
Plasma LNG concentrations were determined by a validated liquid chromatography hyphenated with tandem mass spectrometry method (ACC, Leidersbach, Germany). PK parameters were derived by means of non-compartmental analysis. Analysis of Variance (ANOVA) was used as basis for the calculation of 90% confidence intervals; point estimates and confidence intervals for area under the curve (AUC) and maximum concentration (Cmax) values and comparison of treatments which were calculated by parametric analysis. Descriptive statistics for each treatment group and for subgroups with BMI<30 and ≥30 kg/m^2 were calculated.

healthy, cyclic women = assay: Return of ovulation after the last treatment day; assay type: in vivo, human; conditions: for Ovulation observed, average days after last treatment: post-treatment period
Protocol: After the last treatment day, assessments were continued every three (±1) days until ovulation was observed, followed by P measurements 2 (±1) and, if necessary, 4 (±1) days after ovulation. An end-of-study examination was performed 6 (±1) days after ovulation, or on day 30 (±1) in case no ovulation had been observed until then.

[2] = 0.135 mg per day oral over 55 ± 1 consecutive days, entire treatment group

Compound: C#C[C@]1(O)CC[C@H]2[C@@H]3CCC4=CC(=O)CC[C@@H]4[C@H]3CC[C@@]21CC (racemic) [LNG, levonorgestrel]
- AUC0-24, ss, Max [1, 2]: 30 ng·h/mL
- AUC0-24, ss, Min [1, 2]: 10.2 ng·h/mL
- Cmax, ss, Max [1, 2]: 3.23 ng/mL
- Cmax, ss, Min [1, 2]: 1.14 ng/mL
- Dose proportionality of total exposure over the dosing interval ([1]; 0.095, 0.115 and 0.135 mg per day, day 55±1): dose proportionality
- AUC(0-t) ([1]; 0.095 mg per day, 0.095 mg per day oral over 55 ± 1 consecutive days, entire treatment group, read-out: AUC0-24, ss, Geometric Mean): 12.4 ng·h/mL
- AUC(0-t) ([1]; 0.095 mg per day, 0.095 mg per day oral over 55 ± 1 consecutive days, entire treatment group, read-out: AUC0-24, ss, Mean): 13.1 ng·h/mL
- AUC(0-t) ([1]; 0.095 mg per day, 0.095 mg per day oral over 55 ± 1 consecutive days, entire treatment group, read-out: AUC0-24, ss, Median): 11.8 ng·h/mL
- Cmax ([1]; 0.095 mg per day, 0.095 mg per day oral over 55 ± 1 consecutive days, entire treatment group, read-out: Cmax, ss, Geometric Mean): 1.55 ng/mL
- Cmax ([1]; 0.095 mg per day, 0.095 mg per day oral over 55 ± 1 consecutive days, entire treatment group, read-out: Cmax, ss, Mean): 1.65 ng/mL
- Cmax ([1]; 0.095 mg per day, 0.095 mg per day oral over 55 ± 1 consecutive days, entire treatment group, read-out: Cmax, ss, Median): 1.63 ng/mL
- AUC(0-t) ([1]; 0.095 mg per day, 0.095 mg per day oral over 55 ± 1 consecutive days, subgroup BMI < 30 kg/m2, read-out: AUC0-24, ss, Geometric mean): 14 ng·h/mL
- Cmax ([1]; 0.095 mg per day, 0.095 mg per day oral over 55 ± 1 consecutive days, subgroup BMI < 30 kg/m2, read-out: Cmax, ss, Geometric mean): 1.83 ng/mL
- AUC(0-t) ([1]; 0.095 mg per day, 0.095 mg per day oral over 55 ± 1 consecutive days, subgroup BMI ≥ 30 kg/m^2, read-out: AUC0-24, ss, Geometric mean): 9.2 ng·h/mL
- Cmax ([1]; 0.095 mg per day, 0.095 mg per day oral over 55 ± 1 consecutive days, subgroup BMI ≥ 30 kg/m^2, read-out: Cmax, ss, Geometric mean): 1.05 ng/mL
- AUC(0-t) ([1]; 0.115 mg per day, 0.115 mg per day oral over 55 ± 1 consecutive days, entire treatment group, read-out: AUC0-24, ss, Geometric Mean): 13.8 ng·h/mL
- AUC(0-t) ([1]; 0.115 mg per day, 0.115 mg per day oral over 55 ± 1 consecutive days, entire treatment group, read-out: AUC0-24, ss, Mean): 14.8 ng·h/mL
- AUC(0-t) ([1]; 0.115 mg per day, 0.115 mg per day oral over 55 ± 1 consecutive days, entire treatment group, read-out: AUC0-24, ss, Median): 12.9 ng·h/mL
- Cmax ([1]; 0.115 mg per day, 0.115 mg per day oral over 55 ± 1 consecutive days, entire treatment group, read-out: Cmax, ss, Geometric Mean): 1.67 ng/mL
- Cmax ([1]; 0.115 mg per day, 0.115 mg per day oral over 55 ± 1 consecutive days, entire treatment group, read-out: Cmax, ss, Mean): 1.79 ng/mL
- Cmax ([1]; 0.115 mg per day, 0.115 mg per day oral over 55 ± 1 consecutive days, entire treatment group, read-out: Cmax, ss, Median): 1.81 ng/mL
- AUC(0-t) ([1]; 0.115 mg per day, 0.115 mg per day oral over 55 ± 1 consecutive days, subgroup BMI < 30 kg/m2, read-out: AUC0-24, ss, Geometric mean): 16.3 ng·h/mL
- Cmax ([1]; 0.115 mg per day, 0.115 mg per day oral over 55 ± 1 consecutive days, subgroup BMI < 30 kg/m2, read-out: Cmax, ss, Geometric mean): 2.03 ng/mL
- AUC(0-t) ([1]; 0.115 mg per day, 0.115 mg per day oral over 55 ± 1 consecutive days, subgroup BMI ≥ 30 kg/m^2, read-out: AUC0-24, ss, Geometric mean): 9.32 ng·h/mL
- Cmax ([1]; 0.115 mg per day, 0.115 mg per day oral over 55 ± 1 consecutive days, subgroup BMI ≥ 30 kg/m^2, read-out: Cmax, ss, Geometric mean): 1.05 ng/mL
- AUC(0-t) ([1]; 0.135 mg per day, 0.135 mg per day oral over 55 ± 1 consecutive days, entire treatment group, read-out: AUC0-24, ss, Geometric Mean): 16.8 ng·h/mL
- AUC(0-t) ([1]; 0.135 mg per day, 0.135 mg per day oral over 55 ± 1 consecutive days, entire treatment group, read-out: AUC0-24, ss, Mean): 17.5 ng·h/mL
- AUC(0-t) ([1]; 0.135 mg per day, 0.135 mg per day oral over 55 ± 1 consecutive days, entire treatment group, read-out: AUC0-24, ss, Median): 16.9 ng·h/mL
- Cmax ([1]; 0.135 mg per day, 0.135 mg per day oral over 55 ± 1 consecutive days, entire treatment group, read-out: Cmax, ss, Geometric Mean): 1.92 ng/mL
- Cmax ([1]; 0.135 mg per day, 0.135 mg per day oral over 55 ± 1 consecutive days, entire treatment group, read-out: Cmax, ss, Mean): 2.01 ng/mL
- Cmax ([1]; 0.135 mg per day, 0.135 mg per day oral over 55 ± 1 consecutive days, entire treatment group, read-out: Cmax, ss, Median): 1.93 ng/mL
- AUC(0-t) ([1]; 0.135 mg per day, 0.135 mg per day oral over 55 ± 1 consecutive days, subgroup BMI < 30 kg/m2, read-out: AUC0-24, ss, Geometric mean): 17.6 ng·h/mL
- Cmax ([1]; 0.135 mg per day, 0.135 mg per day oral over 55 ± 1 consecutive days, subgroup BMI < 30 kg/m2, read-out: Cmax, ss, Geometric mean): 2.14 ng/mL
- AUC(0-t) ([1]; 0.135 mg per day, 0.135 mg per day oral over 55 ± 1 consecutive days, subgroup BMI ≥ 30 kg/m^2, read-out: AUC0-24, ss, Geometric mean): 15.3 ng·h/mL
- Cmax ([1]; 0.135 mg per day, 0.135 mg per day oral over 55 ± 1 consecutive days, subgroup BMI ≥ 30 kg/m^2, read-out: Cmax, ss, Geometric mean): 1.52 ng/mL
- Time at which maximum plasma LNG values were reached after dosing ([1]; study drug administration on day 55±1, all dosages): 1 h
- Ovulation observed, average days after last treatment (healthy, cyclic women; LNG 0.095 mg per day for 56 days): 15.5 days
- Ovulation observed, average days after last treatment (healthy, cyclic women; LNG 0.115 mg per day for 56 days): 14.1 days
- Ovulation observed, average days after last treatment (healthy, cyclic women; LNG 0.135 mg per day for 56 days): 12.8 days
- P concentrations after post-treatment ovulation (healthy, cyclic women; majority of subjects, within the 30-day post-treatment period): ≥ 16 nmol/L
